Measurements: patent publication US11286268B1, “EIF4E-inhibiting compounds and methods” (EFFECTOR THERAPEUTICS, INC., priority 2019, dated 2022)

What follows are compounds tested against recombinant eIF4E (Homo sapiens (Human), UniProt P06730) (assay: Fluorescence polarization competition assay for eIF4E binding potency). Conditions: inhibition of eIF4E/EDA-m7GDP-ATTO-550 binding; calculated IC50 values, Table 4B; read-out: IC50.
Method in brief: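 Competitive displacement format: compounds compete with a fluorescent m7GDP tracer (20 nM) for 75 nM recombinant eIF4E. Incubation is 30 min at room temperature, protected from light, with 1% DMSO. Polarization read gives IC50 over eight 3-fold concentrations.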

recombinant eIF4E, sequence (P06730 whole entry): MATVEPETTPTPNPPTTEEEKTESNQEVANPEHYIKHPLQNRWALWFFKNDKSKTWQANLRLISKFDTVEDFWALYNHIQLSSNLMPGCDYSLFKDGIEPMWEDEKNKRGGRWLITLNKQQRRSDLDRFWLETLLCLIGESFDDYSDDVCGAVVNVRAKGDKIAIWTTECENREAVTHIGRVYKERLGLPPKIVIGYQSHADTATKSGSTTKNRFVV

IC50 | SMILES
12.3 nM | Cc1nc2cnc(N3CCN(CCF)CC3)c(C#N)c2c(=O)n1CC#Cc1ccc(Cl)cc1-c1ccnc2c(C(=O)NS(C)(=O)=O)csc12 [compound 1488]
29.1 nM | Cc1nc2cnc(N3CCC4(CC3)CCN4CC(F)F)c(C#N)c2c(=O)n1CC#Cc1ccc(Cl)cc1-c1ccnc2c(C(=O)O)csc12 [compound 1490]
29 nM | Cc1nc2cnc(N(C)CCN(C)CC(F)(F)F)c(C#N)c2c(=O)n1CC#Cc1ccc(Cl)cc1-c1ccnc2c(C(=O)O)csc12 [compound 1491]
20.1 nM | Cc1nc2cnc(CCN(C)CC(F)F)c(C#N)c2c(=O)n1CC#Cc1ccc(Cl)cc1-c1ccnc2c(C(=O)O)csc12 [compound 1492]
6.83 nM | Cc1nc2cnc(N3CCN(C4(C)CC(F)(F)C4)CC3)c(C#N)c2c(=O)n1CC#Cc1ccc(Cl)cc1-c1ccnc2c(C(=O)O)csc12 [compound 1493]
24.7 nM | Cc1nc2cnc(N(C)C3CCN(C4(C#N)CC4)CC3)c(C#N)c2c(=O)n1CC#Cc1ccc(Cl)cc1-c1ccnc2c(C(=O)O)csc12 [compound 1494]
7.09 nM | Cc1nc2cnc(N(C)C3CCN(C)CC3)c(C#N)c2c(=O)n1CC#Cc1ccc(Cl)cc1-c1ccnc2c(C(=O)O)csc12 [compound 1495]
32.5 nM | Cc1nc2cnc(N(C)C3CCN(C4CC4)C4(CC4)C3)c(C#N)c2c(=O)n1CC#Cc1ccc(Cl)cc1-c1ccnc2c(C(=O)O)csc12 (stereo not drawn) [compound 1496]
12.9 nM | Cc1nc2cnc(N(C)CCCN(C)CC(F)(F)F)c(C#N)c2c(=O)n1CC#Cc1ccc(Cl)cc1-c1ccnc2c(C(=O)O)csc12 [compound 1497]
29.1 nM | Cc1nc2cnc(/C=C/CN(C)C)c(C#N)c2c(=O)n1CC#Cc1ccc(Cl)cc1-c1ccnc2c(C(=O)O)csc12 [compound 1498]
27.5 nM | Cc1nc2cnc(N3CCC34CN(CC(F)F)C4)c(C#N)c2c(=O)n1CC#Cc1ccc(Cl)cc1-c1ccnc2c(C(=O)O)csc12 [compound 1499]
17 nM | Cc1nc2cnc(N3CCC34CCN(CC(F)F)CC4)c(C#N)c2c(=O)n1CC#Cc1ccc(Cl)cc1-c1ccnc2c(C(=O)O)csc12 [compound 1500]
20.5 nM | Cc1nc2cnc(N(C)C3CCN(CC(F)(F)F)CC3)c(C#N)c2c(=O)n1CC#Cc1ccc(Cl)cc1-c1ccnc2c(C(=O)NS(C)(=O)=O)csc12 [compound 1501]
26.2 nM | CCC(F)(F)CN1CCC(N(C)c2ncc3nc(C)n(CC#Cc4ccc(Cl)cc4-c4ccnc5c(C(=O)O)csc45)c(=O)c3c2C#N)CC1 [compound 1502]
19.2 nM | Cc1nc2cnc(N(C)C3CCN(CCOC(F)F)CC3)c(C#N)c2c(=O)n1CC#Cc1ccc(Cl)cc1-c1ccnc2c(C(=O)O)csc12 [compound 1503]
13.6 nM | Cc1nc2cnc(N(C)C3CCN(C4(COC(F)F)CC4)CC3)c(C#N)c2c(=O)n1CC#Cc1ccc(Cl)cc1-c1ccnc2c(C(=O)O)csc12 [compound 1504]
13 nM | COCCC(CCOC)N(C)c1ncc2nc(C)n(CC#Cc3ccc(Cl)cc3-c3ccnc4c(C(=O)O)csc34)c(=O)c2c1C#N [compound 1505]
27.4 nM | Cc1nc2cnc(N(C)C3CCN(C(C)(C)C(C)(F)F)CC3)c(C#N)c2c(=O)n1CC#Cc1ccc(Cl)cc1-c1ccnc2c(C(=O)O)csc12 [compound 1506]
16 nM | Cc1nc2cnc(N(C)C3CCN(C(C)(C)C(F)(F)F)CC3)c(C#N)c2c(=O)n1CC#Cc1ccc(Cl)cc1-c1ccnc2c(C(=O)O)csc12 [compound 1507]
17.4 nM | Cc1nc2cnc(N(C)C3CCN(C(C)CF)CC3)c(C#N)c2c(=O)n1CC#Cc1ccc(Cl)cc1-c1ccnc2c(C(=O)O)csc12 (stereo not drawn) [compound 1508]
37.5 nM | Cc1nc2cnc(N3CCN(CCCOC(F)F)CC3)c(C#N)c2c(=O)n1CC#Cc1ccc(Cl)cc1-c1ccnc2c(C(=O)O)csc12 [compound 1509]
20.1 nM | Cc1nc2cnc(N3CCN(C4(COC(F)F)CC4)CC3)c(C#N)c2c(=O)n1CC#Cc1ccc(Cl)cc1-c1ccnc2c(C(=O)O)csc12 [compound 1510]
23.2 nM | Cc1nc2cnc(N3CCN([C@H]4C[C@@H](OC(F)F)C4)CC3)c(C#N)c2c(=O)n1CC#Cc1ccc(Cl)cc1-c1ccnc2c(C(=O)O)csc12 [compound 1511]
12.2 nM | Cc1nc2cnc(N3CC4(C3)CN(C3CCC3)C4)c(C#N)c2c(=O)n1CCOc1ccc(Cl)cc1-c1ccnc2c(C(=O)NS(C)(=O)=O)csc12 [compound 1512]
13.4 nM | Cc1nc2cnc(N(C)C3CCN(CCOC(F)F)CC3)c(C#N)c2c(=O)n1CCOc1ccc(Cl)cc1-c1ccnc2c(C(=O)O)csc12 [compound 1513]
51.7 nM | Cc1nc2cnc(N(C)C3CCN(C(C)(C)C(F)(F)F)CC3)c(C#N)c2c(=O)n1CCOc1ccc(Cl)cc1-c1ccnc2c(C(=O)O)csc12 [compound 1514]
32.1 nM | Cc1nc2cnc(N(C)C3CCN(CC(F)(F)C(F)F)CC3)c(C#N)c2c(=O)n1CCOc1ccc(Cl)cc1-c1ccnc2c(C(=O)O)csc12 [compound 1515]

IC50 | SMILES
17 nM | Cc1nc2cnc(N3CCN(CC(C)(C)F)CC3)c(C#N)c2c(=O)n1CCOc1ccc(Cl)cc1-c1ccnc2c(C(=O)NS(C)(=O)=O)csc12 [compound 1516]
10.7 nM | Cc1nc2cnc(N(C)C3CCN(C(C)C(F)F)CC3)c(C#N)c2c(=O)n1CC#Cc1ccc(Cl)cc1-c1ccnc2c(C(=O)O)csc12 (stereo not drawn) [compound 1518]
15.3 nM | CC(=O)CN1CCC(N(C)c2ncc3nc(C)n(CC#Cc4ccc(Cl)cc4-c4ccnc5c(C(=O)O)csc45)c(=O)c3c2C#N)CC1 [compound 1519]
17.9 nM | Cc1nc2cnc(N(C)C3CCN(CCC(F)(F)F)CC3)c(C#N)c2c(=O)n1CC#Cc1ccc(Cl)cc1-c1ccnc2c(C(=O)O)csc12 [compound 1520]
17.7 nM | Cc1nc2cnc(N(C)C3CCN(C4(C(F)F)CC4)CC3)c(C#N)c2c(=O)n1CC#Cc1ccc(Cl)cc1-c1ccnc2c(C(=O)O)csc12 [compound 1522]
13.1 nM | Cc1nc2cnc(N(C)C3CCN(C4COC4)CC3)c(C#N)c2c(=O)n1CC#Cc1ccc(Cl)cc1-c1ccnc2c(C(=O)O)csc12 [compound 1523]
12.5 nM | Cc1nc2cnc(N(C)C3CCN(C4(C)CC4)CC3)c(C#N)c2c(=O)n1CC#Cc1ccc(Cl)cc1-c1ccnc2c(C(=O)O)csc12 [compound 1524]
15.1 nM | Cc1nc2cnc(N3CC4(CCN4C4CC4)C3)c(C#N)c2c(=O)n1CC#Cc1ccc(Cl)cc1-c1ccnc2c(C(=O)O)csc12 [compound 1525]
15.6 nM | Cc1nc2cnc(N3CCC(N(C)C4CC4)CC3)c(C#N)c2c(=O)n1CC#Cc1ccc(Cl)cc1-c1ccnc2c(C(=O)O)csc12 [compound 1527]
6.31 nM | Cc1nc2cnc(N(C)C3CCOCC3)c(C#N)c2c(=O)n1CC#Cc1ccc(Cl)cc1-c1ccnc2c(C(=O)O)csc12 [compound 1528]
20.1 nM | Cc1nc2cnc(N(C)C3CCN(C4(CF)CC4)CC3)c(C#N)c2c(=O)n1CC#Cc1ccc(Cl)cc1-c1ccnc2c(C(=O)O)csc12 [compound 1529]
33.5 nM | Cc1nc2cnc(N(C)C3CCN(C4(C(F)(F)F)CC4)CC3)c(C#N)c2c(=O)n1CC#Cc1ccc(Cl)cc1-c1ccnc2c(C(=O)O)csc12 [compound 1530]
13.4 nM | Cc1nc2cnc(N(C)[C@@H]3C[C@@H]4CN(CC(F)F)C[C@@H]4C3)c(C#N)c2c(=O)n1CC#Cc1ccc(Cl)cc1-c1ccnc2c(C(=O)O)csc12 [compound 1531]
11.2 nM | Cc1nc2cnc(N(C)[C@H]3C[C@H](N(C)CCF)C3)c(C#N)c2c(=O)n1CC#Cc1ccc(Cl)cc1-c1ccnc2c(C(=O)O)csc12 [compound 1532]
21.7 nM | Cc1nc2cnc(N(C)[C@H]3CC[C@@H](N(C)CCF)CC3)c(C#N)c2c(=O)n1CC#Cc1ccc(Cl)cc1-c1ccnc2c(C(=O)O)csc12 [compound 1533]
15.8 nM | Cc1nc2cnc(N(C)C3COC3)c(C#N)c2c(=O)n1CC#Cc1ccc(Cl)cc1-c1ccnc2c(C(=O)O)csc12 [compound 1534]
17.4 nM | CCN(c1ncc2nc(C)n(CC#Cc3ccc(Cl)cc3-c3ccnc4c(C(=O)O)csc34)c(=O)c2c1C#N)C1CCN(CC(F)F)CC1 [compound 1535]
18.3 nM | Cc1nc2cnc(N(C)C3CCN(CC(F)(F)c4ccn(C)n4)CC3)c(C#N)c2c(=O)n1CC#Cc1ccc(Cl)cc1-c1ccnc2c(C(=O)O)csc12 [compound 1536]
18.9 nM | Cc1nc2cnc(N(C)C3CCN(C(c4ccn(C)n4)C(F)F)CC3)c(C#N)c2c(=O)n1CC#Cc1ccc(Cl)cc1-c1ccnc2c(C(=O)O)csc12 (stereo not drawn) [compound 1537]
14.5 nM | Cc1nc2cnc(N(C)C3CCN(CC(F)(F)F)CC3)c(C#N)c2c(=O)n1CC#Cc1ccc(Cl)cc1-c1ccnc2c(C(=O)NS(=O)(=O)C(C)C)csc12 [compound 1538]
12.5 nM | Cc1nc2cnc(N(C)C3CCN(CC(F)(F)F)CC3)c(C#N)c2c(=O)n1CC#Cc1ccc(Cl)cc1-c1ccnc2c(C(=O)NS(=O)(=O)CC(F)F)csc12 [compound 1539]
19.5 nM | Cc1nc2cnc(N(C)C3CCCN(CC(F)F)C3)c(C#N)c2c(=O)n1CC#Cc1ccc(Cl)cc1-c1ccnc2c(C(=O)O)csc12 (stereo not drawn) [compound 1540]
18.6 nM | Cc1nc2cnc(N(C)CC3CN(CC(F)F)C3)c(C#N)c2c(=O)n1CC#Cc1ccc(Cl)cc1-c1ccnc2c(C(=O)O)csc12 [compound 1542]
20.5 nM | Cc1nc2cnc(OC3CCN(C4CC(F)(F)C4)CC3)c(C#N)c2c(=O)n1CCOc1ccc(Cl)cc1-c1ccnc2c(C(=O)O)csc12 [compound 1543]
13.1 nM | Cc1nc2cnc(N3CCC[C@@H]4CN(CC(F)F)CC[C@@H]43)c(C#N)c2c(=O)n1CC#Cc1ccc(Cl)cc1-c1ccnc2c(C(=O)O)csc12 [compound 1544]
27.5 nM | Cc1nc2cnc(N(C)C3C[C@@H]4C[C@H]3CN4CC(C)(F)F)c(C#N)c2c(=O)n1CC#Cc1ccc(Cl)cc1-c1ccnc2c(C(=O)O)csc12 (stereo partly drawn) [compound 1545]
15.2 nM | Cc1nc2cnc(N(C)C3CCN(CC(F)(F)F)CC3)c(C#N)c2c(=O)n1CC#Cc1ccc(Cl)cc1-c1ccnc2c(C(=O)NS(=O)(=O)C3CC3)csc12 [compound 1547]
